Laboratory results: patent publication US11279079B2, “Cell electrochemical sensor based on 3D printing technology and application thereof” (Jiangnan University, priority 2020, dated 2022)

Legend:
[1] = system: lung adenocarcinoma epithelial cells A549; assay: Cell electrochemical sensor (3D-printed A549/carbon nanofiber/GelMA on screen-printed carbon electrode), EIS cytotoxicity and combination index evaluation; format: cell-based, human; conditions: for IC50 value measured by the EIS method: A549 cell sensor of example 1, 24 hours toxin stimulation, single toxin or combined effect; for impedance value of the cell sensor with increasing dose: concentration range of 0.1-5 μg/mL, 24 hours
Experimental: In an embodiment of the disclosure, the cell sensor needs to be incubated before application, and specific operations comprise: dropping a DMEM cell culture medium at a working electrode of a screen-printed carbon electrode to ensure that the culture medium can cover a cell/carbon nanofiber/GelMA complex on the working electrode to provide cells with nutrients needed for growth, and then placing the working electrode in an incubator with the carbon dioxide concentration of 5% and the humidity of 95% for incubation at 37° C. for 6-12 hours; after incubation, removing the original culture medium on the working electrode, diluting toxin standard substances with the DMEM cell culture medium into gradient concentration solutions, dropping the gradient concentration solutions on the working electrode printed with cells, and then carrying out electrochemical detection after placing the working electrode in the incubator for effect for 24 hours.
In an embodiment of the disclosure, the method uses a modified screen-printed carbon electrode as a sensing interface, a PET material is used as a substrate, the working electrode is composed of carbon, the reference electrode is composed of silver/silver chloride, the counter electrode is composed of carbon, electrochemical detection adopts electrochemical impedance spectroscopy (EIS) to test electrical signal changes of cells stimulated by toxins, the initial potential is 0.2 V, and the frequency range is 1 Hz-10^5 Hz.
In an embodiment of the disclosure, the electrochemical AC impedance method (EIS) measures the signals obtained by the electrochemical sensor stimulated by different concentrations of toxins, the impedance value is calculated by fitting the equivalent circuit with Zview software, the cell viability inhibition rates of different concentrations of toxins are calculated, and the calculation method is as follows: […]
(1) Drug stimulation: An original culture medium on a working electrode is removed, toxin standard substances are diluted with a DMEM cell culture medium into gradient concentration solutions, and then 150 μL of DON toxin solutions in the concentration range of 0.1, 0.2, 0.5, 1, 2 and 5 μg/mL, 150 μL of 15-ADON toxin solutions in the concentration range of 0.1, 0.2, 0.5, 1, 2 and 5 μg/mL and 150 μL of DON+15-ADON toxin solutions in the concentration range of 0.1+0.1, 0.2+0.2, 0.5+0.5, 1+1, 2+2 and 5+5 μg/mL are taken and dropped on the working electrode printed with cells respectively, the working electrode is placed in an incubator for effect for 24 hours, and corresponding impedance values are measured. […]

[2] = pigs, in vivo; cited from earlier work

CC(=O)OC[C@]12[C@H](O)C(=O)C(C)=C[C@H]1O[C@@H]1[C@H](O)C[C@@]2(C)[C@]12CO2 [15-ADON, 15-acetyl-deoxynivalenol]
IC50 value measured by the EIS method [1]: 1.2560 µg/mL | impedance value of the cell sensor with increasing dose [1]: gradually reduced

CC(=O)O[C@@H]1C[C@]2(C)[C@@]3(CO)[C@H](O)C(=O)C(C)=C[C@H]3O[C@H]1[C@@]21CO1 [3-ADON]
conversion into DON in blood [2]: quickly converted into DON

CC1=C[C@H]2O[C@@H]3[C@H](O)C[C@](C)([C@@]2(CO)[C@H](O)C1=O)[C@]31CO1 [DON, deoxynivalenol]
IC50 value measured by the EIS method [1]: 0.9281 µg/mL | impedance value of the cell sensor with increasing dose [1]: gradually reduced
